Experimental data as given in PubChem BioAssay AID256 (DTP/NCI, 2004).
Values joined by “and” are separate entries in the source; they are usually repeats but may differ in a detail not shown here. Identical values can stand only once. Inconclusive results and toxic doses are left out. Rule for the calls: active = survival T/C of 150% or more; inactive = T/C below 125% in these data.

System: CD2F1 mice, L1210 leukemia ip, survival T/C
Experiment: NCI In Vivo Anticancer Drug Screen. Data for tumor model L1210 Leukemia (intraperitoneal) in CD2F1 (CDF1) mice
Settings: higher = longer survival
In short: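 Vehicle-treated tumor-bearing mice served as controls (C) for compound-treated mice (T). Reported figure is T divided by C.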

[1] = endpoint: mean survival time, dose: 100.0 mg/kg/injection, schedule: Q04DX003 (ip), vehicle: saline with Tween-80
[2] = endpoint: mean survival time, dose: 200.0 mg/kg/injection, schedule: Q04DX003 (ip), vehicle: saline with Tween-80
[3] = endpoint: mean survival time, dose: 400.0 mg/kg/injection, schedule: Q04DX003 (ip), vehicle: saline with Tween-80
[4] = endpoint: mean survival time, dose: 50.0 mg/kg/injection, schedule: Q01DX009 (ip), vehicle: saline with Tween-80
[5] = endpoint: mean survival time, dose: 100.0 mg/kg/injection, schedule: Q01DX009 (ip), vehicle: saline with Tween-80
[6] = endpoint: mean survival time, dose: 200.0 mg/kg/injection, schedule: Q01DX009 (ip), vehicle: saline with Tween-80

Measured: T/C

CN1N=C(N)c2cn(C3OC(COP(=O)(O)O)C(O)C3O)c3ncnc1c23 (stereo unspecified)
inactive: endpoint: mean survival time, dose: 6.25 mg/kg/injection, schedule: Q01DX009 (ip), vehicle: water 123 % of control | endpoint: mean survival time, dose: 7.81 mg/kg/injection, schedule: Q01DX005 (iv), vehicle: water 109 % of control | endpoint: mean survival time, dose: 11.73 mg/kg/injection, schedule: Q01DX005 (iv), vehicle: water 112 % of control | endpoint: mean survival time, dose: 15.63 mg/kg/injection, schedule: Q01DX005 (iv), vehicle: water 114 % of control | endpoint: mean survival time, dose: 23.45 mg/kg/injection, schedule: Q01DX005 (iv), vehicle: water 119 % of control | endpoint: median survival time, dose: 12.5 mg/kg/injection, schedule: Q03HX024 (ip), vehicle: alkali diluted with water 97 % of control | endpoint: median survival time, dose: 25.0 mg/kg/injection, schedule: Q01DX001 (ip), vehicle: alkali diluted with water 97 % of control | endpoint: median survival time, dose: 35.0 mg/kg/injection, schedule: Q01DX001 (ip), vehicle: water 120 % of control | endpoint: median survival time, dose: 35.0 mg/kg/injection, schedule: Q01DX005 (oral), vehicle: water 95 % of control | endpoint: median survival time, dose: 35.0 mg/kg/injection, schedule: Q01DX009 (oral), vehicle: water 108 % of control | endpoint: median survival time, dose: 50.0 mg/kg/injection, schedule: Q01DX001 (ip), vehicle: alkali diluted with water 96 % of control | endpoint: median survival time, dose: 53.0 mg/kg/injection, schedule: Q01DX001 (ip), vehicle: water 112 % of control | endpoint: median survival time, dose: 53.0 mg/kg/injection, schedule: Q01DX001 (oral), vehicle: water 105 % of control | endpoint: median survival time, dose: 53.0 mg/kg/injection, schedule: Q01DX005 (oral), vehicle: water 101 % of control | endpoint: median survival time, dose: 53.0 mg/kg/injection, schedule: Q01DX009 (oral), vehicle: water 101 % of control | endpoint: median survival time, dose: 80.0 mg/kg/injection, schedule: Q01DX001 (oral), vehicle: water 103 % of control | endpoint: median survival time, dose: 80.0 mg/kg/injection, schedule: Q01DX005 (oral), vehicle: water 102 % of control | endpoint: median survival time, dose: 80.0 mg/kg/injection, schedule: Q01DX009 (oral), vehicle: water 106 % of control | endpoint: median survival time, dose: 100.0 mg/kg/injection, schedule: Q01DX001 (ip), vehicle: alkali diluted with water 96 % of control | endpoint: median survival time, dose: 100.0 mg/kg/injection, schedule: Q01DX009 (oral), vehicle: alkali diluted with water 104 % of control | endpoint: median survival time, dose: 120.0 mg/kg/injection, schedule: Q01DX001 (oral), vehicle: water 105 % of control | endpoint: median survival time, dose: 120.0 mg/kg/injection, schedule: Q01DX005 (oral), vehicle: water 105 % of control | endpoint: median survival time, dose: 120.0 mg/kg/injection, schedule: Q01DX009 (oral), vehicle: water 103 % of control | endpoint: median survival time, dose: 180.0 mg/kg/injection, schedule: Q01DX001 (oral), vehicle: water 101 % of control | endpoint: median survival time, dose: 180.0 mg/kg/injection, schedule: Q01DX005 (oral), vehicle: water 107 % of control | endpoint: median survival time, dose: 180.0 mg/kg/injection, schedule: Q01DX009 (oral), vehicle: water 102 % of control | endpoint: median survival time, dose: 200.0 mg/kg/injection, schedule: Q01DX009 (oral), vehicle: alkali diluted with water 103 % of control | endpoint: median survival time, dose: 270.0 mg/kg/injection, schedule: Q01DX001 (oral), vehicle: water 101 % of control | endpoint: median survival time, dose: 270.0 mg/kg/injection, schedule: Q01DX005 (oral), vehicle: water 110 % of control | endpoint: median survival time, dose: 270.0 mg/kg/injection, schedule: Q01DX009 (oral), vehicle: water 112 % of control | endpoint: median survival time, dose: 400.0 mg/kg/injection, schedule: Q01DX009 (oral), vehicle: alkali diluted with water 114 % of control | endpoint: median survival time, dose: 405.0 mg/kg/injection, schedule: Q01DX001 (oral), vehicle: water 102 % of control | endpoint: median survival time, dose: 800.0 mg/kg/injection, schedule: Q01DX009 (oral), vehicle: alkali diluted with water 120 % of control | endpoint: median survival time, dose: 1600.0 mg/kg/injection, schedule: Q01DX009 (oral), vehicle: alkali diluted with water 122 % of control
active: endpoint: mean survival time, dose: 10.0 mg/kg/injection, schedule: Q01DX005 (ip), vehicle: water 150 % of control | endpoint: mean survival time, dose: 12.5 mg/kg/injection, schedule: Q01DX009 (ip), vehicle: water 155 % of control | endpoint: mean survival time, dose: 20.0 mg/kg/injection, schedule: Q01DX005 (ip), vehicle: water 152 % of control | endpoint: mean survival time, dose: 23.45 mg/kg/injection, schedule: Q01DX009 (ip), vehicle: water 153 % of control | endpoint: mean survival time, dose: 31.25 mg/kg/injection, schedule: Q01DX009 (ip), vehicle: water 159 % of control | endpoint: mean survival time, dose: 40.0 mg/kg/injection, schedule: Q01DX005 (ip), vehicle: water 157 % of control and 163 % of control | endpoint: mean survival time, dose: 46.9 mg/kg/injection, schedule: Q01DX005 (iv), vehicle: water 151 % of control | endpoint: mean survival time, dose: 46.9 mg/kg/injection, schedule: Q01DX009 (ip), vehicle: water 156 % of control and 174 % of control | endpoint: mean survival time, dose: 62.5 mg/kg/injection, schedule: Q01DX005 (iv), vehicle: water 157 % of control | endpoint: mean survival time, dose: 62.5 mg/kg/injection, schedule: Q01DX009 (ip), vehicle: water 161 % of control | endpoint: mean survival time, dose: 80.0 mg/kg/injection, schedule: Q01DX005 (ip), vehicle: water 163 % of control and 195 % of control | endpoint: median survival time, dose: 6.25 mg/kg/injection, schedule: Q03HX024 (ip), vehicle: alkali diluted with water 156 % of control | endpoint: median survival time, dose: 24.0 mg/kg/injection, schedule: Q01DX005 (ip), vehicle: water 150 % of control | endpoint: median survival time, dose: 24.0 mg/kg/injection, schedule: Q01DX009 (ip), vehicle: water 157 % of control | endpoint: median survival time, dose: 25.0 mg/kg/injection, schedule: Q01DX009 (ip), vehicle: alkali diluted with water 168 % of control | endpoint: median survival time, dose: 25.0 mg/kg/injection, schedule: Q04DX003 (ip), vehicle: alkali diluted with water 151 % of control | endpoint: median survival time, dose: 35.0 mg/kg/injection, schedule: Q01DX009 (ip), vehicle: water 167 % of control | endpoint: median survival time, dose: 50.0 mg/kg/injection, schedule: Q01DX009 (ip), vehicle: alkali diluted with water 187 % of control | endpoint: median survival time, dose: 50.0 mg/kg/injection, schedule: Q04DX003 (ip), vehicle: alkali diluted with water 151 % of control | endpoint: median survival time, dose: 53.0 mg/kg/injection, schedule: Q01DX005 (iv), vehicle: water 155 % of control | endpoint: median survival time, dose: 53.0 mg/kg/injection, schedule: Q01DX009 (ip), vehicle: water 182 % of control | endpoint: median survival time, dose: 80.0 mg/kg/injection, schedule: Q01DX005 (ip), vehicle: water 155 % of control | endpoint: median survival time, dose: 80.0 mg/kg/injection, schedule: Q01DX005 (iv), vehicle: water 158 % of control | endpoint: median survival time, dose: 80.0 mg/kg/injection, schedule: Q01DX009 (ip), vehicle: water 185 % of control | endpoint: median survival time, dose: 100.0 mg/kg/injection, schedule: Q01DX009 (ip), vehicle: alkali diluted with water 200 % of control | endpoint: median survival time, dose: 100.0 mg/kg/injection, schedule: Q04DX003 (ip), vehicle: alkali diluted with water 162 % of control | endpoint: median survival time, dose: 120.0 mg/kg/injection, schedule: Q01DX005 (ip), vehicle: water 161 % of control | endpoint: median survival time, dose: 120.0 mg/kg/injection, schedule: Q01DX009 (ip), vehicle: water 150 % of control | endpoint: median survival time, dose: 200.0 mg/kg/injection, schedule: Q04DX003 (ip), vehicle: alkali diluted with water 150 % of control

CCCCC(OC(=O)c1ccc([N+](=O)[O-])cc1)C(C)[N+](=O)[O-] (stereo unspecified)
inactive: [1] 104 % of control | [2] 97 % of control | [3] 104 % of control

COP1(=O)OCC(C(C)(C)C)CO1 (stereo unspecified)
inactive: endpoint: mean survival time, dose: 12.5 mg/kg/injection, schedule: Q04DX002 (ip), vehicle: saline 103 % of control | endpoint: mean survival time, dose: 25.0 mg/kg/injection, schedule: Q04DX002 (ip), vehicle: saline 88 % of control

Cc1c(Cl)cccc1NC(=O)c1ccc([N+](=O)[O-])cc1
inactive: [1] 95 % of control | [2] 101 % of control | [3] 86 % of control

O=[n+]1c2ccccc2n([O-])c2ccccc21.[Cl][Ni][Cl]
inactive: endpoint: median survival time, dose: 1.56 mg/kg/injection, schedule: Q01DX009 (ip), vehicle: saline with Tween-80 98 % of control | endpoint: median survival time, dose: 3.12 mg/kg/injection, schedule: Q01DX009 (ip), vehicle: saline with Tween-80 92 % of control | endpoint: median survival time, dose: 6.25 mg/kg/injection, schedule: Q01DX009 (ip), vehicle: saline with Tween-80 103 % of control | endpoint: median survival time, dose: 12.5 mg/kg/injection, schedule: Q01DX009 (ip), vehicle: saline with Tween-80 109 % of control | endpoint: median survival time, dose: 25.0 mg/kg/injection, schedule: Q01DX009 (ip), vehicle: saline with Tween-80 113 % of control

CC1CCc2ccccc2N1CCN (stereo unspecified)
inactive: endpoint: mean survival time, dose: 100.0 mg/kg/injection, schedule: Q04DX003 (ip), vehicle: Klucel (hydroxypropylcellulose) (HPC) 95 % of control

O=C(O)C(O)C(O)C(O)C(O)CO (stereo unspecified)
inactive: [4] 109 % of control | [5] 97 % of control | [6] 106 % of control

CC/C=C(\CC)CO
inactive: [4] 100 % of control | [5] 95 % of control | [6] 100 % of control

Brc1ccc(Sc2ccccc2)cc1
inactive: [5] 98 % of control | [6] 93 % of control | endpoint: mean survival time, dose: 400.0 mg/kg/injection, schedule: Q01DX009 (ip), vehicle: saline with Tween-80 96 % of control
